Assay results taken from paper PMC9979163, “Discovery and functional characterization of N-(thiazol-2-yl)-benzamide analogs as the first class of selective antagonists of the Zinc-Activated Channel (ZAC)” (Biochemical pharmacology, 2021).

Legend:
[1] = target: hα1β2γ2s GABAAR (Homo sapiens, UniProt P14867+P18507+P47870); test: TEVC selectivity, hα1β2γ2s GABAAR in oocytes; type: cell-based; conditions: 30 μM, 30 s preapplication, 30 μM GABA (EC20–EC40)
Procedure: The cDNAs for the various WT and chimeric CLR subunits were linearized and subsequently transcribed and capped mMessage mMachine T7 RNA transcription kit (Ambion, Waltham, MA). […]
On the day of experiment, all compound dilutions were prepared in a saline solution [115 mM NaCl, 2.5 mM KCl, 10 mM MOPS (pH 7.5), 1.8 mM CaCl2, 0.1 mM MgCl2] and pH adjusted to 7.5 (if needed). […] Currents were recorded using pCLAMP 10 (Molecular Devices, Sunnyvale, CA). […]
In all recordings, the compounds or compound combinations were applied in the bath until the peak current decayed to a steady state (up to 30 sec at the most). […] The functional properties of the modulators at the CLRs were determined by pre-application of the modulator to the perfusate 30 sec and followed by co-application of the modulator and the agonist to the perfusate. […]
Data analysis of the results from the TEVC recordings were performed using Clampfit software version 10.5 (Molecular Devices, Crawley, UK) and GraphPad Prism version 7.0c (GraphPad Software, Inc. La Jolla, CA). […] I-V relationships were analyzed by fitting the curves with a third order polynomial model. […]

[2] = target: T1, h5-HT3A (Homo sapiens, UniProt P46098); test: FMP assay at h5-HT3A-HEK293 cells; type: cell-based; conditions: concentrations up to 100 μM, data not shown
T1 construct: expressed in transfected cells
T1 sequence (P46098 24-478): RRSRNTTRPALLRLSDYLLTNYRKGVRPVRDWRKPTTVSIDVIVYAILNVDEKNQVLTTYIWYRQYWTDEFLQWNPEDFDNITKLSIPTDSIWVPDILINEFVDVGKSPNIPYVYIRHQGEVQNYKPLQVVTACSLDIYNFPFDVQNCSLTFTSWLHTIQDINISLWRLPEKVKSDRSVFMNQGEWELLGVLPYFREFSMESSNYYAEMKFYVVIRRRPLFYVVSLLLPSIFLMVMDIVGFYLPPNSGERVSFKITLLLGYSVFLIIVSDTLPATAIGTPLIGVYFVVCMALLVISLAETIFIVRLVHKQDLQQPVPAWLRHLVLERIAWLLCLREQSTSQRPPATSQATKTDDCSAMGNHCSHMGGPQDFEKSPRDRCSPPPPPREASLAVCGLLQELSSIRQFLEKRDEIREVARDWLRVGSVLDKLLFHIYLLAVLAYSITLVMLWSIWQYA

Chain of hα1β2γ2s GABAAR (P14867 28-456): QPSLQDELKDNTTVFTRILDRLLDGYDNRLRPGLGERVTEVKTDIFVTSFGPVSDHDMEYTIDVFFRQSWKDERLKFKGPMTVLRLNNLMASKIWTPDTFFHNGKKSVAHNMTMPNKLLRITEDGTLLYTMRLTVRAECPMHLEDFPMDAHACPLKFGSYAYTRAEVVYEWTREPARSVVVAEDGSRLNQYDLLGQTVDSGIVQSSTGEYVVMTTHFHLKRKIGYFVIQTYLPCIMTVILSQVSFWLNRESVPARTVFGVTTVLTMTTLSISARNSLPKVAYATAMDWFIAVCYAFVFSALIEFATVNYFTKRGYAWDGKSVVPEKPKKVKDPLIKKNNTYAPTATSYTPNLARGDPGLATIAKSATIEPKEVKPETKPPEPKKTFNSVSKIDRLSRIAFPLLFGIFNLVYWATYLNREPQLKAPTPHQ
Chain of hα1β2γ2s GABAAR (P47870 25-512 limits assumed): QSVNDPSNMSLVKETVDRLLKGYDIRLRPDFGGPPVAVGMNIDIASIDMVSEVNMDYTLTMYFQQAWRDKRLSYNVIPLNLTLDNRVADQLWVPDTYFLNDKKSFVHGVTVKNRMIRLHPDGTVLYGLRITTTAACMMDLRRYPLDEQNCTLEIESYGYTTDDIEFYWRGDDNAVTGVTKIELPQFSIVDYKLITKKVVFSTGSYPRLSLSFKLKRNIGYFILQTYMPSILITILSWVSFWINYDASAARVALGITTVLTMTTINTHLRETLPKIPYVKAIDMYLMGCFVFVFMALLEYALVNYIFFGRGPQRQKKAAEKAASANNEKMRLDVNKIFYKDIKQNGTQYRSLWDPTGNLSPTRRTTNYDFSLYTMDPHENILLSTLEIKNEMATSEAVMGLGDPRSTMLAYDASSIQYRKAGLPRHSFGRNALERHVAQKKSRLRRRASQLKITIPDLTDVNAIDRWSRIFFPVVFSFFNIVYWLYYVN
Chain of hα1β2γ2s GABAAR (P18507 40-467 isoform P18507-1 limits assumed): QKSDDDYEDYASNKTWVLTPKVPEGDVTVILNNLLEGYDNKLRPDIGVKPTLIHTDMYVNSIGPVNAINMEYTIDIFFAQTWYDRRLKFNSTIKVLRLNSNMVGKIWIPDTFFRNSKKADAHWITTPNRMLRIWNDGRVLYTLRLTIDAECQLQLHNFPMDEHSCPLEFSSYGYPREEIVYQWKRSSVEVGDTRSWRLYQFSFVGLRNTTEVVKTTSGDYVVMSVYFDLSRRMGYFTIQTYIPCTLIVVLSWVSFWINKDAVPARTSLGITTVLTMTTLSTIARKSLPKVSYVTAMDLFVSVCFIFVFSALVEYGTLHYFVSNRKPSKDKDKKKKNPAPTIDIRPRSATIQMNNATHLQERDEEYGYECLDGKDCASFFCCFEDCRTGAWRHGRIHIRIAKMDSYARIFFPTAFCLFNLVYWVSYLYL

Row | SMILES | Agonist, antagonist or PAM activity [1] | Effect on 5-HT-induced response [2]
1 | CC(C)(C)c1csc(NC(=O)c2cccc(F)c2)n1 [5a, N-(4-(tert-butyl)thiazol-2-yl)-3-fluorobenzamide] | did not display significant activity | –
2 | COC(=O)c1sc(NC(=O)c2cc(Br)ccc2Cl)nc1C [compound 1, 2-(5-bromo-2-chlorobenzamido)-4-methylthiazole-5-methyl ester] | – | did not affect
